A word on the IC50: it is the concentration needed to halve the response being measured.

The values that follow come from ChEMBL document CHEMBL3763105, “Semisynthesis of new aphidicolin derivatives with high activity against Trypanosoma cruzi” (Bioorg Med Chem Lett, 2016).

The structures appear in SMILES notation.

One data set deals with Trypanosoma cruzi. In words: Antitrypanosomal activity against Trypanosoma cruzi Tulahuen amastigotes infected in mouse C3H cells after 72 hrs by microplate reader analysis. It is filed as functional, organism-based.
Data set [1] in a line: Selectivity index, ratio of IC50 for mouse C3H cells to IC50 for Trypanosoma cruzi Tulahuen amastigotes infected in mouse C3H cells. The note with it: read-out: Ratio IC50. In kind it is toxicity, cell-based.
Data set [2] in a line: Cytotoxicity against mouse C3H cells after 72 hrs by MTS assay. In kind it is cell-based. For orientation: Formazan colour is commonly taken as a measure of viable cells.

As to `C[C@]12COS(=O)O[C@H]1CC[C@]1(C)[C@@H]2CC[C@@H]2C[C@H]3C[C@]21CC[C@@]3(O)CO` (some centres not stated), the IC50 with Trypanosoma cruzi was 0.78 µM; in data set [2], over 100 µM. Moreover, the selectivity ratio in data set [1] was over 100.
`CC(C)(C)[Si](C)(C)OC[C@]1(O)CC[C@@]23C[C@@H]1C[C@H]2CC[C@@H]1[C@@](C)(CO[Si](C)(C)C(C)(C)C)C(=O)CC[C@]13C` returned an IC50 in the data set with Trypanosoma cruzi of over 100 µM.
On the same count and under the same terms, the figure for `CC(C)(C)[Si](C)(C)OC[C@]1(O)CC[C@@]23C[C@@H]1C[C@H]2CC[C@@H]1[C@@](C)(CO[Si](C)(C)C(C)(C)C)[C@@H](O)CC[C@]13C` is over 100 µM.
`C[C@]1(CO)/C(=N\O)CC[C@]2(C)[C@@H]1CC[C@@H]1C[C@H]3C[C@]12CC[C@@]3(O)CO`: the results for the IC50 (in the data set on Trypanosoma cruzi; in data set [2]) were 1.7 µM and 64.5 µM, respectively. In addition, the selectivity ratio in data set [1] was 37.9.
Consider `O=C(Cn1ccnc1[N+](=O)[O-])NCc1ccccc1` [BENZNIDAZOLE], for which the IC50 in the data set on Trypanosoma cruzi is 3 µM; in data set [2], over 100 µM. The selectivity ratio in data set [1] is over 100.
In data set [2], `COc1cccc2c1C(=O)c1c(O)c3c(c(O)c1C2=O)C[C@@](O)(C(=O)CO)C[C@@H]3O[C@H]1C[C@H](N)[C@H](O)[C@H](C)O1` [DOXORUBICIN] had an IC50 of 0.04 µM. That is a double-digit nanomolar value.
